Results as given in patent US9044474B2, “Compositions and methods for increasing drug efficacy in cancer” (The Ohio State University, priority 2010, dated 2015).
Counter-ions that a name gives are not always drawn.

Assays:
[1] = system: IRE1; assay: XBP1 splicing (IRE1 activity) PCR in CLL cells; type: cell-based, human
Experimental: RNA was extracted using TRIzol reagent (Invitrogen, Carlsbad, Calif.) and purified using QIAGEN RNeasy columns (Qiagen, Valencia, Calif.). cDNA was prepared with SuperScript First-Strand Synthesis System (Invitrogen). Real-time PCR was performed using primers purchased from Applied Biosystems. Detection was performed using an ABI Prism 7700 sequence detection system (Applied Biosystems). Average relative expression (treatment compared with vehicle) was normalized to the internal control gene CD52. Primers to detect spliced XBP1 were designed using Primer 3 software and purchased from IDT. Samples were analyzed on 10% acrylamide gels.

[2] = system: CLL cells; assay: LC3 fluorescence in CLL cells from patients treated with flavopiridol in clinic; type: in vivo, human
Experimental: In this trial, CLL cells were collected pre- and post-therapy 4.5 hours, day 1 (n=16). By confocal fluorescence microscopy, both increased autophagosome formation (P=0.0011) and fusion with lysosomes is observed (FIG. 3F). […] The level of autophagy, as assessed by LC3 fluorescence intensity, was overall greater in non-responders versus responders in both pre- and post-treatment samples (P=0.018); however, the increase in intensity at 4.5 hours post- vs. pre-treatment was only slightly higher for non-responders compared to responders (fold change of 2.51 vs. 1.82, P=0.3445). […] Collectively, these studies provide evidence that our in vitro observations are relevant to the clinical setting.
After 4 hours exposure to agents, cells were washed in phosphate-buffered saline (PBS) and made adherent on a microscope slide by centrifugation in a Cytospin3 (Shandon) centrifuge. Immediately after cytospin, cells were fixed in cold acetone. Next, the cells were incubated in blocking solution (2% bovine serum albumin in PBS) and stained for LC3 (Cell Signaling, Boston, Mass.)) and Lamp2 (Santa Cruz Biotechnology, Santa Cruz, Calif.) by incubating separately with the respective primary antibodies over night, in 4° C., followed by incubation with fluorescent secondary antibodies (Invitrogen, Carlsbad, Calif.): Alexa fluor 594 (red) anti-rabbit for LC3 and Alexa fluor 488 (green) anti-mouse for Lamp2. Nuclei were stained blue with DAPI (Vector Laboratories, Burlingame, Calif.). Images were taken using a 60× objective and 4× digital zoom with Olympus Fluoview 1000 Laser Scanning Confocal microscope at the Ohio State University Campus Microscopy and Imaging Facility. ATF6 antibody was purchased from LifeSpan Biosciences (Seattle, Wash.) and Nrf2 was from Santa Cruz Biotechnology (Santa Cruz, Calif.). Nuclei were evaluated for ATF6 and Nrf2 using confocal microscopy to collect Z stacks, approximately 45 slices per cell, 0.2 μm each.
LC3 intensity and number of dots per cell were both assessed in the fluorescence images. Integrated intensity was measured using Metamorph v.7.0. […] To quantify co-localization, two binary nuclei images—red (R) and green (G)—are obtained. The correlation value is calculated as the number of white pixels of (R&G) divided by the number of pixels of (RIG), where (R&G) is the intersection of R and G, and (RIG) is the union of R and G. The program used for cell counts and measurement of correlation index is based on MatLab software (Natick, Mass.) and it was developed by members of Department of Biomedical Informatics, The Ohio State University.
For the quantification of LC3 fluorescence in serial samples (in vivo data), CLL patients were classified as either “no response” (N=10) or “partial response” (N=6). […]

[3] = system: PERK; assay: PERK activity by eIF2α phosphorylation immunoblot in CLL cells; type: cell-based, human
Experimental: (§1) Proteins extracted from whole cell lysates (50 μg/lane) were separated on polyacrylamide gels and transferred on nitrocellulose membrane. Antibodies used for immunoblots included LC3, IRE1α, TRAF2, PI3K III, ATG4C, ATG5-12, UVRAG, Beclin-1 (Cell Signaling, Boston, Mass.), GAPDH, Nrf2, ASK1, ULK1 (Santa Cruz Biotechnology), and Bif-1, ATG14-Barkor (Sigma-Aldrich, St Louis, Mo.). Species-appropriate secondary antibodies were obtained from BioRad Laboratories (Hercules, Calif.). Following antibody incubations, proteins were detected using a chemiluminescent substrate (BioRad Laboratories). For co-immunoprecipitations, TrueBlot beads (eBiosciences, San Diego, Calif.) and One-hour IP Western kit (GenScript, Piscataway, N.J.) were used according to manufacturer protocols. Quantification was done using FluorChem Q (Alpha Innotech, San Leandro Calif.).

[4] = system: caspases 4 and 8; assay: Caspase 4 and 8 activity in samples from CLL patients treated with flavopiridol; type: in vivo, human; conditions: 4.5 hours following flavopiridol infusion
Experimental: The presence of active caspase enzymes was determined by the AFC assay. Briefly, lysates containing approximately 3×10^6 cells were incubated with 50 μM LEVD-AFC (caspase 4 substrate) or LETD-AFC (caspase 8 substrate) from MP Biomedicals (Solon, Ohio) in 2× cytobuffer from BioVision (Exton, Pa.) containing 10 mM dithiothretiol (DTT). Caspase 4 activity was measured one hour after addition of substrate and caspase 8 activity was measured 30 minutes after addition of substrate. Release of free AFC was measured with a Beckman-Coulter DTX 880 multimode detector (Filters: excitation, 405/10 nm; emission, 535/25 nm). Caspase 4 inhibitor Z-YVAD-FMK was purchased from R&D Systems.

[5] = system: IRE1-ASK1-TRAF2 complex; assay: Co-immunoprecipitation of IRE1-ASK1-TRAF2 complex in samples from flavopiridol-treated CLL patients; set-up: species or system human; conditions: CLL patient cells in vivo following flavopiridol infusion
Experimental: as §1

In the case of `CN1CC[C@H](c2c(O)cc(O)c3c(=O)cc(-c4ccccc4Cl)oc23)[C@H](O)C1` [flavopiridol, (cis-5,7-dihydroxy-2-(2-chlorophenyl)-8-[4-(3-hydroxy-1-methyl)-piperidin-yl]-1-benzopyran-4-one)hydrochloride], the “IRE1 activity (splicing of IRE1 substrate XBP1)” value ([1]; CLL cells) is reported as “no evidence of IRE1 activity”, the “CLL samples with deficiency in XBP1 splicing” value ([1]; CLL samples tested) is reported as 8 of 10 and the “average increase in LC3 integrated intensity at 4.5 hours after flavopiridol infusion versus pretreatment” value ([2]; CLL patients n=16, all) is reported as 2.16 fold. For the same molecule, the “fold change of LC3 intensity 4.5 hours vs pre-treatment, non-responders” value ([2]; non-responders (N=10)) was 2.51 fold, the “overall LC3 intensity, non-responders compared to responders” value ([2]; pre- and post-treatment samples, 95% CI 1.07, 1.95) was 1.44 times and the “fold change of LC3 intensity 4.5 hours vs pre-treatment, responders” value ([2]; responders (N=6)) was 1.82 fold. For the same molecule, the “PERK activity (phosphorylation of eIF2α)” value [3] was “minimally active”, the “patient samples with at least a two-fold increase in activity of caspases 4 and 8” value [4] was 13 of 20 and the “IRE1 and ASK1 association with TRAF2” value [5] was “increase in IRE1 and ASK1 association with TRAF2”.
